Assays:
MCF-7 cells = assay: Inhibition of in vitro human breast tumor cell growth (direct cell counts), ER-positive cells; type: cell-based; details: MCF-7 (ER-positive), 6 days incubation
Description: (§1) The in vitro antiproliferative effects of (−)-cis-6-phenyl-5-[4-(2-pyrrolidin-1-yl-ethoxy)-phenyl]-5,6,7,8-tetrahydro-naphthalene-2-ol (PPTN) were tested using two types of human breast cancer cell lines: first, MCF-7 cells, which contain ER as well as progesterone receptors (PgR), and second, MDA-MB-231 cells, which lack ER and PgR, and enable the determination of an effect that is independent of the ER mechanism. The effect of PPTN on the growth of these different cell lines was determined by incubation of the cells with various compound concentrations for 6 days.
(§2) The antiproliferative effects were then determined by direct cell counts. PPTN inhibited the growth of the ER-positive cell line MCF-7.

MDA-MB-231 cells = assay: Inhibition of in vitro human breast tumor cell growth (direct cell counts), ER-negative cells; type: cell-based; details: MDA-MB-231 (ER-negative), 6 days incubation
Description: as §1, §2

IC50 for growth inhibition (MCF-7 cells): 3 to 5×10^−11 M
Compound: Oc1ccc2c(c1)CC[C@H](c1ccccc1)[C@@H]2c1ccc(OCCN2CCCC2)cc1 [PPTN, (−)-cis-6-phenyl-5-[4-(2-pyrrolidin-1-yl-ethoxy)-phenyl]-5,6,7,8-tetrahydro-naphthalene-2-ol]
inhibition of cell proliferation (MDA-MB-231 cells): did not inhibit cell proliferation
